Measurements: US10787457B2 (priority 2015, dated 2020)

Conditions: mouse hepatic microsome 0.25 mg/mL; 1 μM; 37° C. 30 minutes; NADPH-generating system

percentage of the remaining tested compounds (remaining %): 0%
Structure (SMILES): Cc1ccc(-c2nn(C(C)(C)C)c3ncnc(N)c23)cc1 [Compound 4 of Comparative Examples, 1-(tert-butyl)-3-(p-tolyl)pyrazolo[3,4-d]pyrimidin-4-amine]
